Data reported in US20090111759A1, “Synergistic Combination of Glutamate-and Gaba-Gated Chloride Agonist Pesticide and at Least One Vitamin E, Niacin, or Derivatives Thereof” (priority 2006, published 2009).

Key:
[1] = system: Dysdercus cingulatus nymphs; assay: Topical application of Abamectin/nicotinamide acetone solutions, LD50 (Example 7); type: in vivo; conditions: sum of Abamectin and nicotinamide; mortality recorded 48 h after applying
Experimental: (§1) A range of Abamectin solutions in acetone was prepared. Similarly, a range of nicotinamide solutions was prepared. Mixed solutions of Abamectin and nicotinamide in acetone were prepared as well. Nymphs of Dysdercus cingulatus were treated topically with either an Abamectin acetone solution (2 μl), a nicotinamide acetone solution (2 μl) or mixed solutions (2 μl).
The Dysdercus cingulatus mortality was recorded 48 h after applying the products. Log dose-mortality curves were constructed for the Abamectin, the nicotinamide and for the mixed solutions. The LD50 values reflect the sum of Abamectin and nicotinamide (active ingredients) present at LD50.
From the observed LD50 values for Abamectin and nicotinamide expected LD50 values for the mixtures were calculated according to Wadley's formula.

Spodoptera exigua larvae [2] = assay: whole plant or invertebrate; conditions: read-out: Observed mortality (%)
Experimental: (§2) The efficacy of an Abamectin 18 g/l emulsifiable concentrate formulation (EC) was tested on Spodoptera exiqua larvae on Tradescani crassifolia leaves. The test on Spodoptera exigua was done as a dip-test where Tradescani crassifolia leaves were dipped in the various tests solutions and dried. Afterwards, each leaf was infested with 5 Spodoptera exigua larvae.
(§3) Besides testing the Abamectin 18 g/l EC formulation, Abamectin 18 g/l EC formulation was tested together with 4.5 g/l and 72 g/l nicotinamide. An EC formulation comprising nicotinamide was included in the test as well.

Spodoptera exigua larvae [3] = conditions: single ingredient, 10 ppm in tests solution
Experimental: as §2, §3

[4] = system: Dysdercus cingulatus nymphs; type: in vivo; conditions: in total 20,000 ng/nymph applied dorsally; two replicates of ten nymphs
Experimental: Abamectin, Ivermectin and tocopherol solutions in acetone were prepared. Mixed solutions of either Abamectin or Ivermectin and tocopherol were also prepared. Nymphs of Dysdercus cingulatus were treated topically with Abamectin acetone solution (20,000 ng/nymph), Ivermectin acetone solution (20,000 ng/nymph), a tocopherol acetone solution (20,000 ng/nymph) or a solution containing Abamectin and tocopherol or Ivermectin and tocopherol in the ratio 1:3 (20,000 ng total/nymph). The solutions were applied dorsally on the nymphs.
The Dysdercus cingulatus mortality was followed over time and recorded. Log time-mortality curves were constructed for the Abamectin and Ivermectin solutions and for the mixtures with tocopherol. An LT50 value was calculated for each application.

[5] = system: Dysdercus cingulatus nymphs; assay: Topical application of Abamectin/tocopherol acetone solutions, LD50 (Example 5); type: in vivo; conditions: sum of Abamectin and tocopherol; mortality recorded 48 h after applying
Experimental: as §1, with “of tocopherol, all-rac alpha,” for “of nicotinamide”, “and tocopherol” for “and nicotinamide”, “a tocopherol” for “a nicotinamide”, “μl). The Dysdercus cingulatus mortality was recorded 48 h after applying the products.” for “μl).”
Log dose-mortality curves were constructed for the Abamectin and the tocopherol treatments. LD50 values based on the sum of Abamectin and tocopherol contents (ng active ingredient(s) per nymph) were calculated.
From the observed LD50 values for Abamectin and tocopherol expected LD50 values for the mixtures were calculated according to Wadley's formula.

[6] = system: Dysdercus cingulatus nymphs; type: in vivo; conditions: 2000 ng applied on each nymph; 24 h after applying
Experimental: A range of Abamectin solutions in acetone was prepared. Similarly, a range of tocopherol, all-rac alpha, solutions in acetone was prepared. Abamectin solution (2 μl), tocopherol solution (2 μl) or both were applied topically on nymphs of Dysdercus cingulatus. Abamectin was applied dorsally while tocopherol was applied ventrally. […] The mortality of the nymphs was recorded 24 h after applying the solutions.

Compound	LD50obs [1]	mortality at 10 ppm (Spodoptera exigua larvae [2]) [%]	Observed mortality (%) (Spodoptera exigua larvae [3])	LT50 [4] [h]	LD50obs [5]	% Mortality for each ingredient [6] [%]
NC(=O)c1cccnc1 [nicotinamide]	>20,000 ng AI(s) per nymph	0				
Abamectin	126 ng AI(s) per nymph		10	5.3	1595 ng AI(s) per nymph	74
